Test results from PMC12406203 (Journal of Medicinal Chemistry, 2025).
Where “and” joins values, the source holds several entries; their conditions need not be identical. Equal values may be shown once.

How the values were obtained:
Log D determination = type: physicochemical; settings: pH 7.4, n-octanol/PBS
Method: Calibration curves for phosphate-buffered saline (PBS) (pH = 7.4) and octanol were prepared (0.05–5 μM). The buffer and n-octanol phases were shaken, using phosphate buffer (pH = 7.4). The phase ratios of buffer to n-octanol were 1:1 (0.8 mL octanol:0.8 mL PBS) and 1:3 (0.4 mL octanol:1.2 mL PBS). Octanol was then pipetted into a HPLC vial, followed by the addition of 1.6 μL of a 10 mM stock DMSO solution and the buffer. The vial was mixed with a vortex mixer and shaken for 3 h in the dark at 23 °C. Subsequently, the aqueous and organic phases were sampled with a syringe into a new HPLC vial, and the samples were analyzed using UHPLC/DAD.

[1] = system: TYK2(JH1domain-catalytic)
SH-SY5Y cells = assay: MTS metabolic activity (cytotoxicity); type: cell-based, human; settings: MTS assay, 24 h, concentrations of 5 μM or less
Method: (§1) The human hepatocellular carcinoma HepG2 and human neuroblastoma SH-SY5Y cell lines were purchased from American Type Culture Collection (Manassas, VA, USA). The murine microglia BV2 cells were a generous gift from Dr. Biljana Božić Nedeljković (University of Belgrade, Belgrade, Serbia). Cells were cultured in Advanced Dulbecco’s modified Eagle’s medium (Gibco, Thermo Fisher Scientific, Waltham, MA, USA) supplemented with 10% fetal bovine serum (FBS, Gibco), 2 mM L-glutamine, 50 U/mL penicillin and 50 μg/mL streptomycin (Sigma, St. Louis, MO, USA) in a humidified atmosphere of 95% air and 5% CO2 at 37 °C, and grown to 80% confluence. Prior to cell treatment, complete medium was replaced with serum-free medium. Compounds 94 and 95 were prepared as a stock solution of 30 mM in DMSO and were used at concentrations of 1–100 μM.
(§2) BV2 cells (5 × 10^3/well) and HepG2 and SH-SY5Y cells (1 × 10^4/well) were seeded in 96-well plates and assessed by MTS ([3-(4,5-dimethylthiazol-2-yl)-5-(3-carboxymethoxyphenyl)-2-(4-sulfophenyl)-2H tetrazolium, inner salt) assay for their response to compounds 94 and 95. Cells were treated with increasing concentrations of compounds (1–100 μM) in serum-free medium, and metabolic activity was assessed after 24 h using the CellTiter 96 Aqueous One Solution Cell Proliferation Assay (Promega, Madison, WI, USA), in accordance with the manufacturer’s instructions. Absorbance was measured with an automatic microplate reader (Tecan Safire^2, Switzerland) at a wavelength of 492 nm. Results are presented as a percentage of the control (DMSO).

HepG2 cells = assay: MTS metabolic activity (cytotoxicity); type: cell-based, human; settings: HepG2, MTS assay, 24 h, concentrations of 5 μM or less
Method: as §1, §2

With `CC(C)Cn1ncc2cc(Cc3ccc(F)cc3F)c(C(=O)NCCN(C)C)cc21` [Compound 94, 5-(2,4-Difluorobenzyl)-N-(2-(dimethylamino)ethyl)-1-isobutyl-1H-indazole-6-carboxamide] as the molecule, how does the RA @ 1000nM (VEGFR2) read?
Its RA @ 1000nM is 100%.

And the RA @ 10000nM (VEGFR2)?
The RA @ 10000nM was 100%.

And the “measured log D at pH 7.4” value (Log D determination)?
Its value is 2.13.

And the RA @ 1000nM (AURKB)?
Its RA @ 1000nM is 84%.

What about the RA @ 10000nM (AURKB) of the same molecule?
The RA @ 10000nM was 68%.

What about the RA @ 1000nM (SNARK) of the same molecule?
The RA @ 1000nM was 100%.

And the RA @ 10000nM (SNARK)?
The RA @ 10000nM was 93%.

And the RA @ 1000nM (ERBB4)?
Its RA @ 1000nM is 85%.

And the RA @ 10000nM (ERBB4)?
Its RA @ 10000nM is 83%.

And the RA @ 1000nM (EGFR)?
Its RA @ 1000nM is 98%.

And the RA @ 10000nM (EGFR)?
Its RA @ 10000nM is 69%.

And the RA @ 1000nM (PIM3)?
The RA @ 1000nM was 100%.

And the RA @ 10000nM (PIM3)?
The RA @ 10000nM was 100%.

What about the RA @ 1000nM (AKT2) of the same molecule?
The RA @ 1000nM was 89%.

And the RA @ 10000nM (AKT2)?
The RA @ 10000nM was 76%.

What about the “Pe ± SEM” value (BBB-PAMPA, pH 7.4, n = 2 novel compounds, n = 3 reference drugs) of the same molecule?
The value was 10.4 ± 0.01 ×10–6 cm/s.

What about the “CNS (+/–)” value (predicted BBB permeation from Pe) of the same molecule?
Its value is “CNS+ (CNS+ indicates high predicted BBB permeation [Pe (×10–6 cm/s) > 4.0])”.

And the RA @ 1000nM [1]?
Its RA @ 1000nM is 78%.

What about the RA @ 10000nM [1] of the same molecule?
The RA @ 10000nM was 79%.

And the “RA at 100 µM” value (hAChE)?
Its value is 69 ± 4%.

And the RA @ 1000nM (ERBB2)?
Its RA @ 1000nM is 74%.

And the RA @ 10000nM (ERBB2)?
Its RA @ 10000nM is 81%.

What about the RA @ 1000nM (ALK) of the same molecule?
The RA @ 1000nM was 93%.

And the RA @ 10000nM (ALK)?
Its RA @ 10000nM is 83%.

What about the RA @ 1000nM (ROCK2) of the same molecule?
Its RA @ 1000nM is 87%.

And the RA @ 10000nM (ROCK2)?
Its RA @ 10000nM is 96%.

What about the RA @ 1000nM (CHEK1) of the same molecule?
The RA @ 1000nM was 100%.

And the RA @ 10000nM (CHEK1)?
The RA @ 10000nM was 100%.

What about the RA @ 1000nM (ACVR1B) of the same molecule?
Its RA @ 1000nM is 100%.

And the RA @ 10000nM (ACVR1B)?
The RA @ 10000nM was 100%.

And the RA @ 1000nM (p38β)?
The RA @ 1000nM was 72%.

And the RA @ 10000nM (p38β)?
The RA @ 10000nM was 15%.

What about the RA @ 1000nM (AKT1) of the same molecule?
The RA @ 1000nM was 100%.

What about the RA @ 10000nM (AKT1) of the same molecule?
Its RA @ 10000nM is 75%.

What about the RA @ 1000nM (CSF1R) of the same molecule?
The RA @ 1000nM was 100%.

What about the RA @ 10000nM (CSF1R) of the same molecule?
The RA @ 10000nM was 86%.

And the RA @ 1000nM (FGFR3)?
The RA @ 1000nM was 100%.

And the RA @ 10000nM (FGFR3)?
Its RA @ 10000nM is 100%.

And the RA @ 1000nM (KIT(V559D,T670I))?
The RA @ 1000nM was 100%.

What about the RA @ 10000nM (KIT(V559D,T670I)) of the same molecule?
Its RA @ 10000nM is 100%.

What about the RA @ 1000nM (IGF1R) of the same molecule?
The RA @ 1000nM was 94%.

What about the RA @ 10000nM (IGF1R) of the same molecule?
The RA @ 10000nM was 84%.

What about the RA @ 1000nM (p38α) of the same molecule?
The RA @ 1000nM was 2.3%.

What about the RA @ 10000nM (p38α) of the same molecule?
Its RA @ 10000nM is 0.4%.

What about the RA @ 1000nM (BMPR2) of the same molecule?
The RA @ 1000nM was 86%.

And the RA @ 10000nM (BMPR2)?
Its RA @ 10000nM is 95%.

And the RA @ 1000nM (PAK1)?
The RA @ 1000nM was 96%.

What about the RA @ 10000nM (PAK1) of the same molecule?
Its RA @ 10000nM is 94%.

And the RA @ 1000nM (PDGFRB)?
The RA @ 1000nM was 100%.

And the RA @ 10000nM (PDGFRB)?
The RA @ 10000nM was 97%.

What about the RA @ 1000nM (PAK4) of the same molecule?
Its RA @ 1000nM is 97%.

And the RA @ 10000nM (PAK4)?
Its RA @ 10000nM is 96%.

What about the RA @ 1000nM (CDK3) of the same molecule?
Its RA @ 1000nM is 100%.

What about the RA @ 10000nM (CDK3) of the same molecule?
The RA @ 10000nM was 1.3%.

What about the RA @ 1000nM (ABL1-phosphorylated) of the same molecule?
The RA @ 1000nM was 79%.

And the RA @ 10000nM (ABL1-phosphorylated)?
The RA @ 10000nM was 53%.

What about the RA @ 1000nM (MAP3K4) of the same molecule?
The RA @ 1000nM was 49%.

And the RA @ 10000nM (MAP3K4)?
The RA @ 10000nM was 100%.

What about the RA @ 1000nM (PLK4) of the same molecule?
Its RA @ 1000nM is 100%.

What about the RA @ 10000nM (PLK4) of the same molecule?
The RA @ 10000nM was 100%.

And the RA @ 1000nM (EPHA2)?
Its RA @ 1000nM is 97%.

And the RA @ 10000nM (EPHA2)?
The RA @ 10000nM was 100%.

What about the RA @ 1000nM (PIK3C2B) of the same molecule?
The RA @ 1000nM was 90%.

What about the RA @ 10000nM (PIK3C2B) of the same molecule?
Its RA @ 10000nM is 82%.

And the RA @ 1000nM (PDGFRA)?
The RA @ 1000nM was 96%.

What about the RA @ 10000nM (PDGFRA) of the same molecule?
The RA @ 10000nM was 76%.

And the cell viability (SH-SY5Y cells)?
Its cell viability is “did not affect cell viability”.

What about the cell viability (HepG2 cells) of the same molecule?
Its cell viability is “did not affect cell viability”.

What about the IC50 (p38α MAPK) of the same molecule?
The IC50 was 377 nM and 156 ng/mL.
